Source: PubChem BioAssay AID1918948 (Molecular Pharmacology Branch, DTP, NCI, 2023)
Where “and” joins values, the source holds several entries; their conditions need not be identical. Identical values can stand only once.

Tested on: K-562 leukemia growth, % test/control
Assay: Anticancer human tumor K-562 cell line growth inhibition;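 note: spheroids exposed to compounds for 7 days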;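 for viability, T/C: 100% = DMSO vehicle wells and lower values mean fewer viable cells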
Conditions: spheroids with HUVEC and MSC; for viability, T/C: stronger effect = lower value
From the text: Multicellular complex tumor spheroid response to LSD1 Inhibitor Iadademstat in combination with a variety of drugs and investigational agents in selected tumor cell lines
The current study was undertaken to assess response to LSD1 inhibitors in combination with standard-of-care drugs and investigational agents in solid tumor complex spheroid models as well as in the K-562 leukemia. Complex spheroids include a stromal component modeled by human endothelial cells (HUVEC) and fibroblasts modeled by human mesenchymal stem cells (MSCs). The concentration ranges selected for each drug and investigational agent were based upon clinically achievable concentrations if the clinical Cmax of the agent was known.
Compounds. The drugs and investigational agents used in this study are listed on Table 1. All of the agents used, including staurosporine (NSC755774) and gemcitabine (NSC613327), were obtained from the Developmental Therapeutics Program, NCI. FDA-approved anticancer drugs are available from the NCI at http://dtp.nci.nih.gov/branches/dscb/oncology_drugset_explanation.html. Drugs and investigational agents were >95% pure by proton nuclear magnetic resonance (NMR) and liquid chromatography/mass spectrometry (LC/MS). Stock solutions were prepared at 400x in DMSO, stored at -70 degrees C, and diluted in fresh medium prior to their use. The final concentration of DMSO in cell culture wells never exceeded 0.25% (v/v). The FDA-approved anticancer drug set is available from the Developmental Therapeutics Program at https://dtp.cancer.gov/organization/dscb/obtaining/available_plates.htm. All drugs and investigational agents were tested over a range starting from a high concentration at or near the clinical Cmax and decreasing in half-log increments. If the clinical Cmax for an agent had not been determined, the highest concentration tested was 10 microM.
Cell Lines. The patient-derived cancer cell (PDC) lines: 292921-168-R-J2-PDC, K24384-001-R-PDC, and 521955-158-R2-J5-PDC pancreatic carcinomas, 556581-035-R-J1 ovarian carcinoma, 324938-238-R-J1-PDC, 855422-203-R-J1-PDC and 883617-216-R-J1-PDC urothelial bladder carcinomas, 743489-274-T-PDC renal cell carcinoma, 138582-R-J1 Merkel cell tumor, K60290-347-R-J1 and K57222-313-R-J1-PDC glioblastomas, 653999-131-R-J2-PDC, LG0703-F948-PDC, and 349418-098-R-PDC non-small cell lung carcinomas, 885512-296-R-J2-PDC, 171881-019-R-J1-PDC breast carcinomas and 186277-243-T-J2-PDC and 233499-124-R-J2-PDC colon carcinomas were obtained from the NCI Patient-Derived Models Repository (PDMR, https://pdmr.cancer.gov). The established cell lines NCI/ADR-RES (RRID:CVCL_14520 and OVCAR-5 (RRID:CVCL_1628) ovarian carcinomas, 786-O (RRID:CVCL_1051) and A498 (RRID:CVCL_A498) renal cell carcinoma, NCI-H211 (ATCC, cat. CRL-5824; RRID:CVCL_1529), NCI-H196 (ATCC, cat. CRL-5823, RRID:CVCL_1509), SW 1271 (ATCC, cat. CRL-2177, RRID:CVCL_1716) and NCI-H1876 (ATCC, cat. CRL-5902, RRID:CVCL_1503) small cell lung carcinomas, MDA-MB-231 (RRID:CVCL_0062) and MDA-MB-468 (RRID:CVCL_0419)breast carcinomas (10-12). Pooled donor human umbilical vein endothelial cells (HUVEC, Lonza, cat. CC-2519) and human mesenchymal stem cells (hMSC, Lonza, cat. PT-2501) were purchased from Lonza (Walkersville, MD).
Cell Culture. All cells were maintained in an incubator at 37 degrees C and 5% CO2 with 95% humidity. The PDC lines were cultured according to standard operating procedures established by the NCI PDMR (https://pdmr.cancer.gov). Briefly all PDCs were thawed and cultured in Matrigel-coated flasks prepared with a working solution of 1X Ham's F-12 nutrient mix, without supplementation (Invitrogen, Waltham, MA, cat. 11765054), 100 U/mL penicillin-streptomycin (Invitrogen, cat. 15140122), and 2.5% Matrigel (Corning Inc., Corning, NY, cat. 354248) for the first three passages. […]

[1] = curve of first compound, second compound 0.1 µM
[2] = curve of first compound, second compound 0.316 µM
[3] = curve of first compound, second compound 1 µM
[4] = curve of first compound, second compound 3.16 µM
[5] = curve of first compound, second compound 10 µM
[6] = second compound 0.1 µM, first compound 0.0316 µM
[7] = second compound 0.1 µM, first compound 0.1 µM
[8] = second compound 0.1 µM, first compound 0.316 µM
[9] = second compound 0.1 µM, first compound 1 µM
[10] = second compound 0.1 µM, first compound 3.16 µM
[11] = second compound 0.1 µM, first compound 10 µM
[12] = second compound 0.316 µM, first compound 0.0316 µM
[13] = second compound 0.316 µM, first compound 0.1 µM
[14] = second compound 0.316 µM, first compound 0.316 µM
[15] = second compound 0.316 µM, first compound 1 µM
[16] = second compound 0.316 µM, first compound 3.16 µM
[17] = second compound 0.316 µM, first compound 10 µM
[18] = second compound 1 µM, first compound 0.0316 µM
[19] = second compound 1 µM, first compound 0.1 µM
[20] = second compound 1 µM, first compound 0.316 µM
[21] = second compound 1 µM, first compound 1 µM
[22] = second compound 1 µM, first compound 3.16 µM
[23] = second compound 1 µM, first compound 10 µM
[24] = second compound 3.16 µM, first compound 0.0316 µM
[25] = second compound 3.16 µM, first compound 0.1 µM
[26] = second compound 3.16 µM, first compound 0.316 µM
[27] = second compound 3.16 µM, first compound 1 µM
[28] = second compound 3.16 µM, first compound 3.16 µM
[29] = second compound 3.16 µM, first compound 10 µM
[30] = second compound 10 µM, first compound 0.0316 µM
[31] = second compound 10 µM, first compound 0.1 µM
[32] = second compound 10 µM, first compound 0.316 µM
[33] = second compound 10 µM, first compound 1 µM
[34] = second compound 10 µM, first compound 3.16 µM
[35] = second compound 10 µM, first compound 10 µM

## CC1COCCN1c1cc(C2(S(C)(=N)=O)CC2)nc(-c2ccnc3[nH]ccc23)n1 (stereo not drawn) + NC1CCC(NC2CC2c2ccccc2)CC1
[1]
  IC50: 578 nM
[2]
  IC50: 603 nM
[3]
  IC50: 614 nM
[4]
  IC50: 602 nM
[5]
  IC50: 511 nM
[6]
  viability, T/C: 101%
[7]
  viability, T/C: 97.5%
[8]
  viability, T/C: 81.8%
[9]
  viability, T/C: 21.2%
[10]
  viability, T/C: 3.64%
[11]
  viability, T/C: 2.72%
[12]
  viability, T/C: 104%
[13]
  viability, T/C: 96.9%
[14]
  viability, T/C: 84.5%
[15]
  viability, T/C: 23.1%
[16]
  viability, T/C: 4.12%
[17]
  viability, T/C: 2.74%
[18]
  viability, T/C: 106%
[19]
  viability, T/C: 101%
[20]
  viability, T/C: 86.2%
[21]
  viability, T/C: 23.4%
[22]
  viability, T/C: 3.81%
[23]
  viability, T/C: 2.62%
[24]
  viability, T/C: 103%
[25]
  viability, T/C: 99.7%
[26]
  viability, T/C: 84.5%
[27]
  viability, T/C: 22.9%
[28]
  viability, T/C: 3.69%
[29]
  viability, T/C: 2.79%
[30]
  viability, T/C: 96.6%
[31]
  viability, T/C: 98.2%
[32]
  viability, T/C: 73.2%
[33]
  viability, T/C: 17.3%
[34]
  viability, T/C: 3.62%
[35]
  viability, T/C: 2.14%

## O=C(c1cc(Cc2n[nH]c(=O)c3ccccc23)ccc1F)N1CCN(C(=O)C2CC2)CC1 + NC1CC1c1ccc(-c2cccc(O)c2)cc1
[1]
  IC50: 9600 nM
[2]
  IC50: 9550 nM
[3]
  IC50: > 10000 nM
[4]
  IC50: > 10000 nM
[5]
  IC50: 8390 nM
[6]
  viability, T/C: 111%
[7]
  viability, T/C: 108%
[8]
  viability, T/C: 108%
[9]
  viability, T/C: 106%
[10]
  viability, T/C: 94.3%
[11]
  viability, T/C: 48.4%
[12]
  viability, T/C: 107%
[13]
  viability, T/C: 103%
[14]
  viability, T/C: 102%
[15]
  viability, T/C: 101%
[16]
  viability, T/C: 90.2%
[17]
  viability, T/C: 47.9%
[18]
  viability, T/C: 98%
[19]
  viability, T/C: 100%
[20]
  viability, T/C: 102%
[21]
  viability, T/C: 98.8%
[22]
  viability, T/C: 89.9%
[23]
  viability, T/C: 50.1%
[24]
  viability, T/C: 104%
[25]
  viability, T/C: 101%
[26]
  viability, T/C: 100%
[27]
  viability, T/C: 96.9%
[28]
  viability, T/C: 87.8%
[29]
  viability, T/C: 51.2%
[30]
  viability, T/C: 100%
[31]
  viability, T/C: 99.8%
[32]
  viability, T/C: 101%
[33]
  viability, T/C: 96%
[34]
  viability, T/C: 79.2%
[35]
  viability, T/C: 44.7%

## CC1COCCN1c1cc(C2(S(C)(=N)=O)CC2)nc(-c2ccnc3[nH]ccc23)n1 (stereo not drawn) + NC1CC1c1ccc(-c2cccc(O)c2)cc1
[1]
  IC50: 1590 nM
[2]
  IC50: 1580 nM
[3]
  IC50: 1500 nM
[4]
  IC50: 1490 nM
[5]
  IC50: 1350 nM
[6]
  viability, T/C: 115%
[7]
  viability, T/C: 107%
[8]
  viability, T/C: 108%
[9]
  viability, T/C: 77.3%
[10]
  viability, T/C: 9.88%
[11]
  viability, T/C: 2.95%
[12]
  viability, T/C: 100%
[13]
  viability, T/C: 107%
[14]
  viability, T/C: 101%
[15]
  viability, T/C: 77.9%
[16]
  viability, T/C: 7.2%
[17]
  viability, T/C: 2.06%
[18]
  viability, T/C: 105%
[19]
  viability, T/C: 104%
[20]
  viability, T/C: 103%
[21]
  viability, T/C: 74%
[22]
  viability, T/C: 6.19%
[23]
  viability, T/C: 1.92%
[24]
  viability, T/C: 109%
[25]
  viability, T/C: 105%
[26]
  viability, T/C: 99.2%
[27]
  viability, T/C: 72.8%
[28]
  viability, T/C: 6.87%
[29]
  viability, T/C: 2.7%
[30]
  viability, T/C: 105%
[31]
  viability, T/C: 105%
[32]
  viability, T/C: 106%
[33]
  viability, T/C: 65.7%
[34]
  viability, T/C: 5.01%
[35]
  viability, T/C: 2.52%

## CC(C)c1c(-c2ccccc2)nc2c(C#N)c[nH]n2c1=O
Compound 0.0316 µM
  viability, T/C: 104% and 100%
Compound 0.1 µM
  viability, T/C: 98.4% and 97%
Compound 0.316 µM
  viability, T/C: 102% and 101%
Compound 1 µM
  viability, T/C: 99% and 102%
Compound 3.16 µM
  viability, T/C: 106% and 109%
Compound 10 µM
  viability, T/C: 107% and 108%
Curve of compound
  IC50: > 10000 nM

## CC1(C)CCC(CN2CCN(c3ccc(C(=O)NS(=O)(=O)c4ccc(NCC5CCOCC5)c([N+](=O)[O-])c4)c(Oc4cnc5[nH]ccc5c4)c3)CC2)=C(c2ccc(Cl)cc2)C1
Compound 0.0316 µM
  viability, T/C: 102% and 101%
Compound 0.1 µM
  viability, T/C: 103% and 107%
Compound 0.316 µM
  viability, T/C: 100% and 108%
Compound 1 µM
  viability, T/C: 109% and 117%
Compound 3.16 µM
  viability, T/C: 117% and 75.7%
Curve of compound
  IC50: 7520 nM and 4730 nM
